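Where inhibition never reached the appropriate level, the endpoint shown equals the highest concentration tested. Otherwise, values were interpolated linearly from a five-concentration, 48-hour dose response in 96-well plates. At the GI50, growth is halved. The concentration for full growth arrest is given as TGI.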
How the values were obtained:
Assay in all cases: NCI-60 cell line screen, 48 h
PC-3 prostate = tested on: PC-3 prostate
RPMI-8226 leukemia = tested on: RPMI-8226 leukemia
HCC-2998 colon = tested on: HCC-2998 colon
M14 melanoma = tested on: M14 melanoma
UACC-257 melanoma = tested on: UACC-257 melanoma
HCT-116 colon = tested on: HCT-116 colon
SF-539 CNS = tested on: SF-539 CNS

Row | SMILES | TGI (PC-3 prostate) | TGI (RPMI-8226 leukemia) | TGI (HCC-2998 colon) | TGI (M14 melanoma) | TGI (UACC-257 melanoma) | TGI (HCT-116 colon) | TGI (SF-539 CNS) | GI50 (PC-3 prostate) | GI50 (SF-539 CNS) | GI50 (HCC-2998 colon) | GI50 (M14 melanoma) | GI50 (HCT-116 colon) | GI50 (RPMI-8226 leukemia) | GI50 (UACC-257 melanoma)
1 | CC(NC(=O)C1(N)CCCC1)C(=O)O (centres undefined) | > 100 µM | > 100 µM | > 100 µM | > 100 µM | > 100 µM | > 100 µM | – | – | – | – | – | – | – | –
2 | COc1ccc(/C=C/c2cnnc3ccccc23)cc1OC | > 10 µM | > 10 µM | > 10 µM | > 10 µM | > 10 µM | > 10 µM | > 10 µM | – | – | – | – | – | – | –
3 | COC(=O)/C=C/c1cc(OC)c2c(c1)[C@@H](C(=O)OC)[C@H](c1ccc(OC)c(OC)c1)O2 | > 100 µM | – | > 100 µM | > 100 µM | > 100 µM | > 100 µM | > 100 µM | 2.11 µM | 1.22 µM | 3.35 µM | 0.816 µM | 0.528 µM | – | –
4 | N=C(N)c1ccc(-c2ccc(-c3ccccc3)o2)o1 | 10.1 µM | 8.21 µM | 3.25 µM | 3.4 µM | 6.35 µM | 5.29 µM | 4.43 µM | 2.64 µM | 1.95 µM | 1.61 µM | 1.62 µM | 2.06 µM | 2.89 µM | 2.52 µM
5 | c1ccc(Oc2cnc3ccccc3n2)cc1 | > 100 µM | > 100 µM | > 100 µM | > 100 µM | > 100 µM | > 100 µM | > 100 µM | > 100 µM | 92.3 µM | > 100 µM | > 100 µM | > 100 µM | > 100 µM | > 100 µM
6 | CCCCCCCCCCCC(=O)[O][Sn]([CH2]CCC)([CH2]CCC)[CH2]CCC | 0.162 µM | 0.098 µM | 0.187 µM | 0.142 µM | 0.181 µM | 0.14 µM | 0.141 µM | 0.049 µM | 0.0609 µM | 0.0669 µM | 0.0548 µM | 0.0379 µM | 0.0228 µM | 0.0533 µM
7 | COc1cccc(-c2nn(C)c3sc(C(=O)NCCN4CCN(c5ccccc5F)CC4)cc23)c1 | > 100 µM | > 100 µM | > 100 µM | – | > 100 µM | > 100 µM | > 100 µM | 11.5 µM | 9.45 µM | 7.06 µM | – | 9.91 µM | 6.51 µM | 28.4 µM
8 | COc1cccc(/C=N/[N-]C(N)=O)c1[O-].[Cu+2].c1ccncc1 | – | 67.1 µM | > 100 µM | 31.4 µM | > 100 µM | 32 µM | 54.2 µM | – | – | – | – | – | – | –
9 | CC(=O)SC(C[N+](=O)[O-])c1ccccc1 (centres undefined) | 25.7 µM | 5.18 µM | 10.6 µM | 17.2 µM | 24.5 µM | 4.48 µM | 5.26 µM | – | – | – | – | – | – | –
10 | Nc1ncnc2c1c(-c1ccc(Oc3ccccc3)cc1)nn2C[C@H]1SSC[C@H]1O | 11.8 µM | 9.13 µM | 2.03 µM | 0.0332 µM | 1.36 µM | 1.21 µM | 5.97 µM | 2.05 µM | 0.441 µM | 0.388 µM | 0.0157 µM | 0.0489 µM | 1.95 µM | 0.208 µM
11 | COc1ccc(S(=O)(=O)Nc2c(/C=C\c3cc(OC)c(OC)c(OC)c3)ccc(OC)c2O)cc1OC | > 100 µM | > 61 µM | 5.57 µM | > 100 µM | > 100 µM | > 100 µM | 0.457 µM | 0.244 µM | 0.0856 µM | 0.306 µM | 0.205 µM | 0.171 µM | 0.413 µM | > 78.2 µM
12 | OC(c1cc2c(Cl)cc(Cl)cc2c2cc(C(F)(F)F)ccc12)C1CCCCN1 (centres undefined) | 3.26 µM | 4.95 µM | 3.24 µM | 4.12 µM | 3.7 µM | 3.37 µM | – | 1.71 µM | – | 1.64 µM | 2.04 µM | 1.67 µM | 2.3 µM | 1.92 µM
13 | O=C(/C=C/c1ccco1)c1cccc(Nc2nc(Nc3ccccc3)nc(Nc3ccccc3)n2)c1 | > 100 µM | 5.47 µM | > 100 µM | > 100 µM | > 83.8 µM | 35.3 µM | > 100 µM | 5.13 µM | 44.5 µM | 25.7 µM | 37.7 µM | 2.47 µM | 0.279 µM | > 44.7 µM
14 | CCc1cc(Cc2cc(CC)cc(C(C)(C)C)c2O)c(O)c(C(C)(C)C)c1 | 14.7 µM | 28.4 µM | 6.52 µM | 14.4 µM | 11.6 µM | 5.82 µM | 5.98 µM | 3.86 µM | 2.51 µM | 2.42 µM | 3.63 µM | 2.09 µM | 3.35 µM | 2.79 µM

Reference: PubChem BioAssay (NCI)
